Key:
[1] = molecular target: T1, Cathepsin B1 isotype 1 (Schistosoma mansoni) (UniProt Q8MNY2); assay: Inhibition of Schistosoma mansoni cathepsin B1 using Z-Phe-Arg-aminomethylcoumarin as substrate at 100 uM by fluorescence method relative to control
T1 sequence (whole entry): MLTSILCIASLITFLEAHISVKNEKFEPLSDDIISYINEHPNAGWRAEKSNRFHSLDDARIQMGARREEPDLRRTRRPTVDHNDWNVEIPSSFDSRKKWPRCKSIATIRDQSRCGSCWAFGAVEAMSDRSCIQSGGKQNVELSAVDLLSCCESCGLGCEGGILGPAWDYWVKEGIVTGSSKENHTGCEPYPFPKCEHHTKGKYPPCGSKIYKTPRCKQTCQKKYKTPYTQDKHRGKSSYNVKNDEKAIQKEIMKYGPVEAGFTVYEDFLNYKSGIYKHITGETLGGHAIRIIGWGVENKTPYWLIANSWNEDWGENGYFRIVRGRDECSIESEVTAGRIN

Schistosoma mansoni = assay: Antischistosomal activity against Schistosoma mansoni infected in NMRI mouse assessed as worm burden reduction at 100 mg/kg, po administered as single dose relative to control; assay type: functional; set-up: scale not given: the % may be the effect or the level left
Schistosoma japonicum [2] = assay: Schistosomicidal-activity against adult Schistosoma japonicum at 10 uM incubated for 72 hrs by inverted microscopic method relative to control; assay type: functional
Schistosoma japonicum [3] = assay: Antischistosomal activity against Schistosoma japonicum infected in ICR mouse assessed as total worm reduction at 250 mg/kg, po administered as single dose relative to control; assay type: functional; set-up: scale not given: the % may be the effect or the level left

In the case of `O=C(c1ccc(CCl)c([N+](=O)[O-])c1)N1CCOCC1`, the inhibition [1] is reported as less than 27%.

With `CC(C)NCC1CCc2cc(CO)c([N+](=O)[O-])cc2N1` (stereo unspecified) [OXAMNIQUINE] the Activity (Schistosoma mansoni) was 99.2%.

`O=C(CCl)N1CC(=O)N2CCc3sccc3C2C1` (stereo unspecified) gave an Activity (Schistosoma japonicum [2]) of 100%.

Compound `O=C(C1CCCCC1)N1CC(=O)N2CCc3ccccc3C2C1` (stereo unspecified) [PRAZIQUANTEL] has an Activity (Schistosoma japonicum [3]) of 62.4% and an Activity (Schistosoma japonicum [2]) of 37.5%.

`CCCC(=O)OCCNC(=O)c1ccc(CCl)c([N+](=O)[O-])c1` gave an inhibition [1] of less than 27%.

Source: ChEMBL document CHEMBL4811216, “Chemotherapy for human schistosomiasis: how far have we come? What's new? Where do we go from here?” (RSC Med Chem, 2020)
